Measured values as given in PubChem BioAssay (NCI).
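1) Cells in 96-well plates. 2) Compound, 48 h, 5 concentrations. 3) Linear interpolation between surrounding doses. 4) Unreached endpoint = highest concentration. Abbreviation: GI50, concentration required for 50% inhibition of growth. TGI marks complete inhibition of growth.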

How the values were obtained:
Test in all cases: NCI-60 cell line screen, 48 h
[1] = test system: ACHN renal
[2] = test system: CAKI-1 renal
[3] = test system: CCRF-CEM leukemia
[4] = test system: HCT-116 colon
[5] = test system: LOX IMVI melanoma
[6] = test system: M14 melanoma
[7] = test system: NCI-H226 lung
[8] = test system: NCI-H23 lung
[9] = test system: SK-MEL-28 melanoma
[10] = test system: U251 CNS

Row | SMILES | GI50 [1] [µM] | TGI [1] [µM] | GI50 [2] [µM] | TGI [2] [µM] | GI50 [3] [µM] | TGI [3] [µM] | GI50 [4] [µM] | TGI [4] [µM] | GI50 [5] [µM] | TGI [5] [µM] | GI50 [6] [µM] | TGI [6] [µM] | TGI [7] [µM] | GI50 [8] [µM] | TGI [8] [µM] | GI50 [9] [µM] | TGI [9] [µM] | GI50 [10] [µM] | TGI [10] [µM] | GI50 [7] [µM]
1 | CCN1C(=O)N(CC)C2C1NN=c1s/c(=C\c3ccc(Br)cc3)c(=O)n12 (stereo not given) | 0.249 | > 100 | 0.065 | > 100 | 0.246 | > 33.1 | 0.107 | > 100 | 0.185 | > 100 | 0.138 | > 100 | > 100 | 0.422 | > 100 | > 53.8 | > 100 | 0.18 | > 54.2 | 
2 | CC1(/C=C/c2ccc(-c3ccccc3)cc2)CCn2cnc3ncnc(c32)N1O (stereo not given) | 0.281 | 14.2 | 0.327 | 12.2 | 0.153 | 41.5 | 0.358 | 18.6 | 0.302 | 21.6 | 0.265 | 2.49 | 20.2 | 0.635 | 27.3 | 0.656 | 20 | 0.418 | 22 | 0.571
3 | O=S1c2ccccc2N=C(c2cccs2)CC1c1ccccc1O (stereo not given) |  | > 100 |  | > 100 |  | > 100 |  |  |  | > 100 |  | > 100 | > 100 |  | > 100 |  | > 100 |  |  | 
4 | COc1ccc(COc2ccc(Cc3cnc(N)nc3N)cc2OC)cc1 | > 25 | > 25 | > 24.1 | > 25 | > 25 | > 25 | 14.6 | > 25 | > 25 | > 25 | > 25 | > 25 | > 25 | > 17.1 | > 25 | 24.8 | > 25 | 21.4 | > 25 | 16
5 | O=C(Nc1ccn(C2CCC(COC(c3ccccc3)(c3ccccc3)c3ccccc3)O2)c(=O)n1)c1ccccc1 (stereo not given) |  | 9.74 |  | 13.4 |  | 9.04 |  | 11.9 |  | 7.02 |  | 11.8 | 18 |  | 7.8 |  | 16.9 |  | 13.8 | 
6 | OCC1OC(N2CCN(C3OC(CO)C(O)C(O)C3O)CC2)C(O)C(O)C1O (stereo not given) |  | > 100 |  | > 100 |  |  |  | > 100 |  | > 100 |  | > 100 | > 100 |  | > 100 |  | > 100 |  | > 100 | 
7 | CC#CC#C/C=C1/C=CC2(CCCCO2)O1 (stereo not given) |  |  |  | > 100 |  | 53.9 |  | > 100 |  | > 100 |  | > 100 | > 100 |  | > 100 |  | > 100 |  | > 100 | 
8 | NS(=O)(=O)c1ccc(NC(=O)Nc2cccc3ccccc23)cc1 |  | > 100 |  | > 100 |  | > 100 |  | > 100 |  | > 100 |  | > 100 | 52.8 |  | > 100 |  | > 100 |  | 36.2 | 
9 | Cc1cccc(Nc2ncc(-c3ccccc3)o2)c1 | > 25 | > 25 | > 25 | > 25 | > 25 | > 25 | > 25 | > 25 | > 25 | > 25 | > 25 | > 25 | > 25 | > 25 | > 25 | > 25 | > 25 | > 25 | > 25 | > 25
10 | O=C1/C(=C/c2ccc(C(=O)O)cc2)CNC/C1=C\c1ccc(C(=O)O)cc1 |  | > 100 |  |  |  | > 100 |  | > 100 |  |  |  | > 100 | > 100 |  | > 100 |  | > 100 |  | > 100 | 
11 | O=Cc1cc2sc(C=O)cc2s1 |  |  |  | > 100 |  | > 100 |  | > 100 |  | > 100 |  | > 100 | 59.2 |  | > 100 |  |  |  | > 100 | 
12 | CCCCCCCN(CCCCCCC)C(=N)c1ccc(OC)c2ccccc12 | 1.32 | 2.81 | 1.43 | 2.83 | 1.76 | 3.63 |  |  |  |  | 1.53 | 2.95 |  | 1.1 | 2.53 | 1.62 | 3.17 | 1.39 | 2.81 | 
13 | CC(C)Cc1cc(-c2cccn2C)c(C#N)c(=O)[nH]1 | > 100 | > 100 | > 100 | > 100 | 23.4 | > 100 | > 100 | > 100 | > 100 | > 100 |  |  | > 100 | > 100 | > 100 | > 100 | > 100 | > 100 | > 100 | > 100
14 | COc1cccc(/C=C/C(=O)c2cc3c(N)c(C(=O)Nc4ccccc4)sc3nc2C)c1 | 0.971 | 1.86 | 0.933 | 1.91 |  |  | 0.838 | 1.58 | 0.887 | 1.64 | 1.27 | 3.52 | 2.75 | 1.2 | 3.05 | 1.72 | 6.45 | 0.897 | 1.72 | 1.15
15 | COC1C[C@H](O[C@@H]2C[C@H](O[C@@H]3C[C@H](O[C@@H]4C(=O)c5c(cc6cc(O[C@H]7C[C@@H](O[C@H]8C[C@@H](O)[C@H](O)C(C)O8)[C@H](O)C(C)O7)c(C)c(O)c6c5O)C[C@H]4C(OC)C(=O)[C@@H](O)[C@@H](C)O)OC(C)[C@H]3O)OC(C)[C@@H]2O)OC(C)[C@@H]1O (stereo not given in full) | 0.252 | 31.1 | 8 | > 32.5 | 0.127 | > 32.5 | 0.0968 | > 32.5 | 0.0545 | 0.168 | 0.191 | 2.15 |  | 0.0899 | 0.695 |  |  | 0.0631 | 29.6 | 
16 | C[C@H]1O[C@@H](O[C@H]2[C@@H](O)C[C@H](O[C@H]3[C@@H](O)C[C@H](O[C@H]4CC[C@]5(C)C6CC[C@]7(C)[C@@H](C8=CC(=O)OC8)CC[C@]7(O)C6CC[C@@H]5C4)O[C@@H]3C)O[C@@H]2C)C[C@H](O)[C@@H]1O (stereo not given in full) | 0.0126 | 0.0391 | 0.0126 | 0.0339 |  |  |  | 0.0494 | 0.0156 | 0.0549 | 0.0328 | 0.0986 | 0.115 | 0.0117 | 0.0355 | 0.0313 | 0.101 | 0.0186 | 0.0676 | 0.0476

Row | SMILES | GI50 [1] [µM] | TGI [1] [µM] | GI50 [2] [µM] | TGI [2] [µM] | GI50 [3] [µM] | TGI [3] [µM] | GI50 [4] [µM] | TGI [4] [µM] | GI50 [5] [µM] | TGI [5] [µM] | GI50 [6] [µM] | TGI [6] [µM] | TGI [7] [µM] | GI50 [8] [µM] | TGI [8] [µM] | GI50 [9] [µM] | TGI [9] [µM] | GI50 [10] [µM] | TGI [10] [µM] | GI50 [7] [µM]
17 | Nc1nc(N)c2c(n1)NC(c1ccc(Cl)cc1)C1CCc3ccccc3C1=N2 (stereo not given) | 4.72 | 18.3 | 4.33 | 18.8 |  |  | 3.72 | 14.9 | 3.53 | 16.2 | 10.4 | 22.1 | 27.8 | 4.88 | 18 | 13.9 | 27.4 | 3.81 | 16.3 | 8.58
18 | Cc1cc(NCCCCCCCCNc2cc(C)nc3cc(N(C)C)ccc23)c2ccc(N(C)C)cc2n1 |  | 32.7 |  | 72.1 |  | 49.1 |  | 14 |  | 8.99 |  | 21.4 |  |  | 15.2 |  | 4.48 |  | 9.45 | 
19 | [N-]=[N+]=NCCCn1c2c(c3ccccc3c1=O)C(=O)c1cc3c(cc1-2)OCO3 | 24.1 | > 100 |  |  | 8.3 | > 100 | 29.8 | > 100 | 44.9 | > 100 | 79.7 | > 100 | > 100 |  |  |  |  | 28.7 | > 100 | > 100
20 | CC1=NN(c2ccccc2)C(=O)C1N=Nc1ccc(Br)cc1C (stereo not given) |  | > 100 |  | > 100 |  | > 100 |  | > 100 |  |  |  | > 100 | > 100 |  | > 100 |  | > 100 |  | > 100 | 
21 | O=C(Nc1cccc(Cl)c1)Nc1cc(C(F)(F)F)ccc1Cl | 2.54 | 7.16 |  |  | 3.24 | > 100 | 2.54 | 7.48 | 2.75 | 6.96 | 2.97 | 9.68 | 10.5 | 2.44 | 6.59 | 4.19 | 29.6 | 3.32 | 8.56 | 3.25
22 | O=c1[nH]c(C2CCCCC2)nc2ccc(Cl)cc12 |  | > 100 |  |  |  |  |  | > 100 |  |  |  |  | > 100 |  | > 100 |  | > 100 |  | > 100 | 
23 | Clc1ccc(Nc2nnc(COc3ccccc3)c3ccccc23)cc1 | 2.35 | 25 |  |  | 2.8 | 14.2 | 1.07 | 4.83 | 1.29 | 4.85 | 0.918 | 5.03 | 6.58 | 1.56 | 7.87 | 2.84 | 7.23 | 2.93 | 7.47 | 1.56
24 | c1ccc2cc(Cn3c(-c4cccc5ccccc45)[n+](Cc4ccc5ccccc5c4)c4c5ccccc5c5ccccc5c43)ccc2c1 |  |  |  |  | 0.362 | 2.31 | 0.176 | 1.5 |  |  |  |  |  | 0.248 | 1.15 |  |  | 0.165 | 1.42 | 
25 | Fc1ccc(Nc2ccnc(N3CCN(c4ccnc5cc(Cl)ccc45)CC3)n2)cc1 | 2.5 | > 100 | 1.83 | 5.3 | 2.74 | 10.5 | 1.97 | 5.24 | 1.82 | 3.62 | 1.89 | 4.25 | 17.5 |  |  | 3.27 | 12.9 | 1.87 | 5.27 | 2.52
26 | COc1cc(OC)c(OC)cc1/C=C/c1ccc2ccccc2n1 |  | > 10 |  | > 10 |  | > 10 |  | > 10 |  | > 10 |  | > 10 |  |  | > 10 |  | > 10 |  | > 10 | 
27 | O=C(COc1ccc(Cl)cc1Cl)NNc1ccc([N+](=O)[O-])cc1 | 51.5 | > 100 | > 100 | > 100 |  |  | 65.3 | > 100 | > 100 | > 100 | > 100 | > 100 | > 100 | 41.5 | > 100 | 39.1 | > 100 | 20.1 | 43.6 | 28.9
28 | COc1cc(/C=C/[N+](=O)[O-])cc(OC)c1 | 1.76 | 3.72 |  |  | 2.02 | 6.32 | 1.84 | 3.64 | 1.42 | 2.75 | 2 | 4.48 | 46.1 | 1.85 | 4.37 | 2.75 | 7.29 | 2.22 | 5.48 | 17.3
29 | O=C(Nc1c(Cl)cccc1Cl)Oc1cccc2cccnc12 | 3.87 | > 100 | 3.19 | 24.4 | 2.29 | 23.2 | 3.69 | > 100 |  |  | 4.03 | 20.2 | 21.7 | 4.07 | 45.5 | 7.28 | 75.2 |  |  | 4.57
30 | CCCCCCCC(=O)[O-].N.N.N.N.N.[Co+3].[O-][Cl+3]([O-])([O-])[O-] | > 100 | > 100 |  |  | > 100 | > 100 | > 100 | > 100 | > 100 | > 100 | > 100 | > 100 |  | > 100 | > 100 | > 100 | > 100 | > 100 | > 100 | 
31 | COC(=O)C1(N2CCOCC2)CCC([C@@H](c2ccccc2)C(C)[N+](=O)[O-])C1 (stereo not given in full) |  | > 100 |  |  |  | 20.3 |  |  |  | > 100 |  | > 100 | > 100 |  | > 100 |  | > 100 |  | > 100 | 
32 | COc1ccc(C2[C@@H](Cl)C(=O)N2c2ccc(OC)cc2)cc1 (stereo not given in full) |  | > 100 |  | > 100 |  | > 100 |  | > 100 |  |  |  |  | > 100 |  | > 100 |  | > 100 |  | > 100 | 
